{
  "source": "patent US8329645B2",
  "about": "“Polymyxin derivatives and uses thereof” (priority 2008, dated 2012)",
  "key": {"A. baumannii F264": {"test_system": "A. baumannii F264", "test": "E-test MIC of antibiotics on Mueller Hinton agar containing increasing concentrations of NAB739", "assay_type": "cell-based, Acinetobacter baumannii"}, "P. aeruginosa F58": {"test_system": "P. aeruginosa F58", "test": "E-test MIC with or without NAB7061 (4 μg/ml), Mueller-Hinton agar", "assay_type": "cell-based, Pseudomonas aeruginosa", "protocol": "(§1) MICs were determined by using E-strips (Biodisk Ltd., Solna, Sweden) according to the manufacturer's instructions.\n(§2) The strains originated from ATCC (11 strains), CCUG (11 strains), and NCTC (The National Collection of Type Cultures, Colindale, U.K.; 2 strains). Eight strains (the F-strains) were purchased from Mobidiag Ltd., Helsinki, Finland."}, "P. aeruginosa ATCC27853": {"test_system": "P. aeruginosa ATCC27853", "test": "E-test MIC with or without NAB7061 (4 μg/ml), Mueller-Hinton agar", "assay_type": "cell-based, Pseudomonas aeruginosa", "protocol": "as §1, §2"}, "P. aeruginosa CCUG51971": {"test_system": "P. aeruginosa CCUG51971", "test": "E-test MIC with or without NAB7061 (4 μg/ml), Mueller-Hinton agar", "assay_type": "cell-based, Pseudomonas aeruginosa", "protocol": "as §1, §2"}, "Ac. baumannii F263": {"test_system": "Ac. baumannii F263", "test": "E-test MIC with or without NAB7061 (4 μg/ml), Mueller-Hinton agar", "assay_type": "cell-based, Acinetobacter baumannii", "conditions": "Ac. baumannii F263", "protocol": "as §1, §2"}, "Ac. baumannii ATCC19606": {"test_system": "Ac. baumannii ATCC19606", "test": "E-test MIC with or without NAB7061 (4 μg/ml), Mueller-Hinton agar", "assay_type": "cell-based, Acinetobacter baumannii", "conditions": "Ac. baumannii ATCC19606", "protocol": "as §1, §2"}, "Ac. baumannii F264": {"test_system": "Ac. baumannii F264", "test": "E-test MIC with or without NAB7061 (4 μg/ml), Mueller-Hinton agar", "assay_type": "cell-based, Acinetobacter baumannii", "conditions": "Ac. baumannii F264", "protocol": "as §1, §2"}, "K. oxytoca CCUG51683": {"test_system": "K. oxytoca CCUG51683", "test": "E-test MIC with or without NAB7061 (4 μg/ml), Mueller-Hinton agar", "assay_type": "cell-based, Klebsiella oxytoca", "protocol": "as §1, §2"}, "K. oxytoca ATCC13182": {"test_system": "K. oxytoca ATCC13182", "test": "E-test MIC with or without NAB7061 (4 μg/ml), Mueller-Hinton agar", "assay_type": "cell-based, Klebsiella oxytoca", "protocol": "as §1, §2"}, "E. coli CCUG41427": {"test_system": "E. coli CCUG41427", "test": "E-test MIC with or without NAB7061 (4 μg/ml), Mueller-Hinton agar", "assay_type": "cell-based, Escherichia coli", "outline": "(§3)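 Gradient-strip (E-strip) method, performed per manufacturer's protocol; MIC read where growth inhibition met the strip.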"}, "E. coli IH3080": {"test_system": "E. coli IH3080", "test": "E-test MIC with or without NAB7061 (4 μg/ml), Mueller-Hinton agar", "assay_type": "cell-based, Escherichia coli", "outline": "as §3"}, "E. coli NCTC13351": {"test_system": "E. coli NCTC13351", "test": "E-test MIC with or without NAB7061 (4 μg/ml), Mueller-Hinton agar", "assay_type": "cell-based, Escherichia coli", "outline": "as §3"}, "E. coli CCUG41421": {"test_system": "E. coli CCUG41421", "test": "E-test MIC with or without NAB7061 (4 μg/ml), Mueller-Hinton agar", "assay_type": "cell-based, Escherichia coli", "outline": "as §3"}, "E. coli CCUG41424": {"test_system": "E. coli CCUG41424", "test": "E-test MIC with or without NAB7061 (4 μg/ml), Mueller-Hinton agar", "assay_type": "cell-based, Escherichia coli", "outline": "as §3"}, "E. coli CCUG41425": {"test_system": "E. coli CCUG41425", "test": "E-test MIC with or without NAB7061 (4 μg/ml), Mueller-Hinton agar", "assay_type": "cell-based, Escherichia coli", "outline": "as §3"}, "E. coli CCUG41429": {"test_system": "E. coli CCUG41429", "test": "E-test MIC with or without NAB7061 (4 μg/ml), Mueller-Hinton agar", "assay_type": "cell-based, Escherichia coli", "outline": "as §3"}, "E. coli CCUG41422": {"test_system": "E. coli CCUG41422", "test": "E-test MIC with or without NAB7061 (4 μg/ml), Mueller-Hinton agar", "assay_type": "cell-based, Escherichia coli", "outline": "as §3"}, "E. coli NCTC13353": {"test_system": "E. coli NCTC13353", "test": "E-test MIC with or without NAB7061 (4 μg/ml), Mueller-Hinton agar", "assay_type": "cell-based, Escherichia coli", "outline": "as §3"}, "E. coli CCUG41432": {"test_system": "E. coli CCUG41432", "test": "E-test MIC with or without NAB7061 (4 μg/ml), Mueller-Hinton agar", "assay_type": "cell-based, Escherichia coli", "outline": "as §3"}, "S. maltophilia ATCC17444": {"test_system": "S. maltophilia ATCC17444", "test": "E-test MIC with or without NAB7061 (4 μg/ml), Mueller-Hinton agar", "assay_type": "cell-based", "protocol": "as §1, §2"}, "P. vulgaris ATCC13315": {"test_system": "P. vulgaris ATCC13315", "test": "E-test MIC with or without NAB7061 (4 μg/ml), Mueller-Hinton agar", "assay_type": "cell-based", "protocol": "as §1, §2"}},
  "data": [
    {"smiles": "CO[C@H]1/C=C/O[C@@]2(C)Oc3c(C)c(O)c4c(O)c(c(/C=N/N5CCN(C)CC5)c(O)c4c3C2=O)NC(=O)/C(C)=C\\C=C\\[C@H](C)[C@H](O)[C@@H](C)[C@@H](O)[C@@H](C)[C@H](OC(C)=O)[C@@H]1C", "note": "[Rifampin]", "values": [
      {"measurement": "MIC of antibiotic in the presence of NAB739", "setting": "A. baumannii F264; NAB 739 0.5 μg/ml", "value": 0.094, "unit": "µg/mL"},
      {"measurement": "MIC of antibiotic in the presence of NAB739", "setting": "A. baumannii F264; NAB 739 1 μg/ml", "value": 0.016, "unit": "µg/mL"},
      {"measurement": "MIC of antibiotic in the presence of NAB739", "setting": "A. baumannii F264; NAB 739 […]", "value": 0.38, "unit": "µg/mL"},
      {"measurement": "MIC of antibiotic in the presence of 4 μg/ml of NAB 7061", "setting": "P. aeruginosa F58", "value": ">32", "unit": "µg/mL"},
      {"measurement": "Sensitization factor to antibiotic (MIC without / with 4 μg/ml of NAB 7061)", "setting": "P. aeruginosa F58", "value": "<2"},
      {"measurement": "MIC of antibiotic in the presence of 4 μg/ml of NAB 7061", "setting": "P. aeruginosa ATCC27853", "value": "12 to 16", "unit": "µg/mL"},
      {"measurement": "Sensitization factor to antibiotic (MIC without / with 4 μg/ml of NAB 7061)", "setting": "P. aeruginosa ATCC27853", "value": 2},
      {"measurement": "MIC of antibiotic in the presence of 4 μg/ml of NAB 7061", "setting": "P. aeruginosa CCUG51971", "value": ">32", "unit": "µg/mL"},
      {"measurement": "Sensitization factor to antibiotic (MIC without / with 4 μg/ml of NAB 7061)", "setting": "P. aeruginosa CCUG51971", "value": "<2"},
      {"measurement": "MIC of antibiotic in the presence of 4 μg/ml of NAB 7061", "setting": "Ac. baumannii F263", "value": "0.032 to 0.19", "unit": "µg/mL"},
      {"measurement": "Sensitization factor to antibiotic (MIC without / with 4 μg/ml of NAB 7061)", "setting": "Ac. baumannii ATCC19606", "value": "24-32"},
      {"measurement": "Sensitization factor to antibiotic (MIC without / with 4 μg/ml of NAB 7061)", "setting": "Ac. baumannii F264", "value": 32},
      {"measurement": "MIC of antibiotic in the presence of 4 μg/ml of NAB 7061", "setting": "K. oxytoca CCUG51683", "value": "0.012 to 0.023", "unit": "µg/mL"},
      {"measurement": "Sensitization factor to antibiotic (MIC without / with 4 μg/ml of NAB 7061)", "setting": "K. oxytoca CCUG51683", "value": "700-2000"},
      {"measurement": "MIC of antibiotic in the presence of 4 μg/ml of NAB 7061", "setting": "K. oxytoca ATCC13182", "value": "0.032 to 0.047", "unit": "µg/mL"},
      {"measurement": "Sensitization factor to antibiotic (MIC without / with 4 μg/ml of NAB 7061)", "setting": "K. oxytoca ATCC13182", "value": "680-750"},
      {"measurement": "MIC of antibiotic in the presence of 4 μg/ml of NAB 7061", "setting": "E. coli CCUG41427", "value": "0.032 to 0.064", "unit": "µg/mL"},
      {"measurement": "Sensitization factor to antibiotic (MIC without / with 4 μg/ml of NAB 7061)", "setting": "E. coli CCUG41427", "value": "100-250"},
      {"measurement": "MIC of antibiotic in the presence of 4 μg/ml of NAB 7061", "setting": "E. coli IH3080", "value": "0.023 to 0.047", "unit": "µg/mL"},
      {"measurement": "Sensitization factor to antibiotic (MIC without / with 4 μg/ml of NAB 7061)", "setting": "E. coli IH3080", "value": "170-350"},
      {"measurement": "MIC of antibiotic in the presence of 4 μg/ml of NAB 7061", "setting": "E. coli NCTC13351", "value": "0.032 to 0.047", "unit": "µg/mL"},
      {"measurement": "Sensitization factor to antibiotic (MIC without / with 4 μg/ml of NAB 7061)", "setting": "E. coli NCTC13351", "value": "340-500"},
      {"measurement": "MIC of antibiotic in the presence of 4 μg/ml of NAB 7061", "setting": "E. coli CCUG41421", "value": "0.032 to 0.064", "unit": "µg/mL"},
      {"measurement": "MIC of antibiotic in the presence of 4 μg/ml of NAB 7061", "setting": "E. coli CCUG41424", "value": "0.064 to 0.094", "unit": "µg/mL"},
      {"measurement": "Sensitization factor to antibiotic (MIC without / with 4 μg/ml of NAB 7061)", "setting": "E. coli CCUG41424", "value": "85-94"},
      {"measurement": "MIC of antibiotic in the presence of 4 μg/ml of NAB 7061", "setting": "E. coli CCUG41425", "value": "0.016 to 0.023", "unit": "µg/mL"},
      {"measurement": "Sensitization factor to antibiotic (MIC without / with 4 μg/ml of NAB 7061)", "setting": "E. coli CCUG41425", "value": "200-260"},
      {"measurement": "MIC of antibiotic in the presence of 4 μg/ml of NAB 7061", "setting": "E. coli CCUG41429", "value": 0.032, "unit": "µg/mL"},
      {"measurement": "Sensitization factor to antibiotic (MIC without / with 4 μg/ml of NAB 7061)", "setting": "E. coli CCUG41422", "value": "170-256"},
      {"measurement": "MIC of antibiotic in the presence of 4 μg/ml of NAB 7061", "setting": "E. coli NCTC13353", "value": 0.064, "unit": "µg/mL"},
      {"measurement": "MIC of antibiotic in the presence of 4 μg/ml of NAB 7061", "setting": "E. coli CCUG41432", "value": 0.032, "unit": "µg/mL"},
      {"measurement": "Sensitization factor to antibiotic (MIC without / with 4 μg/ml of NAB 7061)", "setting": "E. coli CCUG41432", "value": "180-250"},
      {"measurement": "MIC of antibiotic in the presence of 4 μg/ml of NAB 7061", "setting": "S. maltophilia ATCC17444", "value": 2, "unit": "µg/mL"},
      {"measurement": "Sensitization factor to antibiotic (MIC without / with 4 μg/ml of NAB 7061)", "setting": "S. maltophilia ATCC17444", "value": "4-8"},
      {"measurement": "MIC of antibiotic in the presence of 4 μg/ml of NAB 7061", "setting": "P. vulgaris ATCC13315", "value": "1 to 1.5", "unit": "µg/mL"},
      {"measurement": "Sensitization factor to antibiotic (MIC without / with 4 μg/ml of NAB 7061)", "setting": "P. vulgaris ATCC13315", "value": "<2"}
    ]}
  ]
}
